Laboratory results published in patent publication US20250325571A1, “TREATMENT OF BINGE EATING DISORDER USING PSYCHEDELICS” (TRYP Therapeutics Inc., priority 2022, published 2025).

Columns and labels:
[1] = cited from earlier work
[2] = rats, cited from earlier work
[3] = across species tested; cited from earlier work
[4] = tested on: 2-deoxy-D-glucose-induced hyperphagia; details: rats; cited from earlier work
[5] = tested on: human subjects with a Binge eating disorder (BED); assay: Open-label clinical study of oral psilocybin with psychotherapy in BED: eating behavior, body and psychological indicators; format: in vivo; details: for BMI / Waist circumference / HADS Anxiety Score / HADS Depression Score / Acceptance and Action Questionnaire (AAQ-II) score / Patient Global Impression (PGI-I) score / Binge Eating Scale (BES) score: one subject; for Patient Global Impression (PGI-I) score: scale 1 (very much improved) to 7, baseline set at 4; for Binge Eating Scale (BES) score: BES ranges from 0 to 46
[6] = tested on: human subjects with a Binge eating disorder (BED); assay: Safety evaluation in the clinical study (adverse events, vital signs); format: in vivo
Experimental: Subjects were instructed to consume a low-fat breakfast at least one hour before reporting to the dosing session, where a single 25 mg oral dose of psilocybin was to be administered (Usona Institute). On dosing day, vital signs, for example, heart rate and BP, were assessed prior to administration of psilocybin and at 30, 60, 90, 120, 180, 240, 300, and 360 minutes post-administration. 12-lead ECGs were performed in triplicate pre-dosing and 60, 120, and 360 minutes after capsule administration. C-SSRS responses were reported prior to and following dosing. […] ACT-based clinical formulation continues as the therapist listens to emergent narratives and notes instances of psychological flexibility and inflexibility, especially present moment awareness, avoidance, and values.
Session monitors were trained to provide support to subjects if they experience acute anxiety, agitation, paranoia, or panic. However, in the event of an AE, a physician was consulted. AEs include psychiatric emergency, hypertension, acute chest pain, and headache. An oral benzodiazepine, for example, lorazepam, was available for treatment of panic or anxiety. An oral antipsychotic, for example, risperidone, was available for treatment of psychosis or severe agitation. If a subject experienced hypertension, a BP of >200 mm Hg systolic or >110 mm Hg diastolic for more than 15 minutes from four consecutive readings, the subject was transferred to the emergency room whether or not they were symptomatic. Labetalol or similar drug was available for treatment of hypertension. If a subject developed new-onset chest pain, the subject was evaluated in-person by the study physician to determine whether the pain was cardiovascular or musculoskeletal, or reflects acute panic/anxiety. Vital signs and ECG were monitored and compared to baseline measurements for evidence of acute ischemia. […]
Vital signs, such as BP and heart rate, were recorded at the dosing session, the day following dosing, and at Weeks 6, 10, and 14 (4, 8, and 12 weeks after the dosing session). […]
Adverse events (AEs) were monitored throughout the study. […]

tissue phosphatases = details: in vitro studies; cited from earlier work
[7] = doses examined in clinical studies; cited from earlier work
[8] = tested on: human subjects with a Binge eating disorder (BED); assay: Psychedelic experience questionnaires (CEQ, MEQ30) one day after dosing; details: one subject
[9] = day 0 (day of administration of psilocybin, 25 mg oral)
[10] = day 0, after dosing (25 mg oral)
[11] = day 27 after single 25 mg oral dose with psychotherapy
[12] = day −42 relative to dosing day (baseline, before psilocybin)

CN(C)CCc1c[nH]c2cccc(O)c12 [psilocin]
Time until psilocin is detectable in plasma ([1]; after administration of the parent compound (oral psilocybin)): ≤ 20 min
Half-life in blood ([1]; in vivo): 2 to 3 h
Time to maximum plasma levels ([2]; post-administration of oral psilocybin): approximately 90 minutes
Fraction of total psilocin absorbed from the digestive tract ([2]; psilocybin administered orally): approximately 50%
Brain regions with highest levels of psilocin [3]: neocortex, hippocampus, and thalamus

Clc1cccc(N2CCNCC2)c1 [m-chlorophenylpiperazine]
Effect on 2-deoxy-D-glucose-induced hyperphagia [4]: inhibited

CN(C)CCc1c[nH]c2cccc(OP(=O)(O)O)c12 [psilocybin, 3-[2-(dimethylamino)ethyl]-1H-indol-4-yl]dihydrogen phosphate]
Persistence of decrease in FBE after administration ([5]; 3 subjects for whom data was available): over 80 days
Reduction of daily instances of feeling lost control over eating, 4 of 5 subjects ([5]; 4 of 5 subjects, four-week post-dosing measurement period): greater than 70%
Reduction in daily binge eating episodes from baseline, 4 of 5 subjects ([5]; 4 of 5 subjects, four-week post-dosing measurement period, FIG. 3A): ≥ 75%
Reduction of daily instances of feeling lost control over eating, average (Eating Questionnaire Q2) ([5]; 5 subjects, four-week post-dosing measurement period, FIG. 3B): 81.6%
Duration of effects on BED symptom improvement ([5]; after administration of a single dose): ≥ 80 days
Persistence of decrease in FBE after administration ([5]; all 4 subjects for whom data was available): ≥ 50 days
Daily reduction in binge eating episodes from baseline, all subjects ([5]; all 5 subjects, four-week post-dosing measurement period): at least 60%
Reduction of daily binge eating episodes from baseline, average (Eating Questionnaire Q1) ([5]; average across 5 subjects, four-week post-dosing measurement period, single 25 mg oral dose): 80.4%
BMI [5, 9]: 43.5 kg/m^2
Waist circumference [5, 9]: 105.9 cm
HADS Anxiety Score [5, 10]: 6
HADS Depression Score [5, 10]: 6
HADS Anxiety Score ([5]; day 0, before dosing): 5
HADS Depression Score ([5]; day 0, before dosing): 5
Acceptance and Action Questionnaire (AAQ-II) score ([5]; day 13 after dosing): 10
HADS Anxiety Score ([5]; day 13 after dosing): 4
HADS Depression Score ([5]; day 13 after dosing): 0
Patient Global Impression (PGI-I) score ([5]; day 13 after dosing): 1
Acceptance and Action Questionnaire (AAQ-II) score ([5]; day 27 after dosing): 10
HADS Anxiety Score ([5]; day 27 after dosing): 2
HADS Depression Score ([5]; day 27 after dosing): 1
Patient Global Impression (PGI-I) score ([5]; day 27 after dosing): 1
BMI [5, 11]: 42.5 kg/m^2
Waist circumference [5, 11]: 104.4 cm
Binge Eating Scale (BES) score ([5]; day 27 after single 25 mg oral dose): 5
Acceptance and Action Questionnaire (AAQ-II) score ([5]; day −42 (baseline)): 13
HADS Anxiety Score ([5]; day −42 (baseline)): 5
HADS Depression Score ([5]; day −42 (baseline)): 5
Binge Eating Scale (BES) score ([5]; day −42 (baseline)): 13
BMI [5, 12]: 42.9 kg/m^2
Waist circumference [5, 12]: 106.6 cm
Drug-related adverse events ([6]; 5 subjects, four-week period following administration): No drug-related adverse events were reported
Changes in heart rate or blood pressure ([6]; one subject, 25 mg oral dose): No substantial changes were observed
Adverse events ([6]; one subject, during the administration or the integration sessions): No adverse events were observed
Bioavailability ([1]; oral): ~50%
Most active metabolic organs for initial psilocybin metabolism (tissue phosphatases): kidneys as being among the most active metabolic organs
Tolerability [7]: well tolerated
Challenging Experience Questionnaire score: Death ([8]; CEQ ranges from 0.000 to 1.000): 0
Challenging Experience Questionnaire score: Fear ([8]; CEQ ranges from 0.000 to 1.000): 0.16
Challenging Experience Questionnaire score: Grief ([8]; CEQ ranges from 0.000 to 1.000): 0
Challenging Experience Questionnaire score: Insanity ([8]; CEQ ranges from 0.000 to 1.000): 0
Challenging Experience Questionnaire score: Isolation ([8]; CEQ ranges from 0.000 to 1.000): 0
Challenging Experience Questionnaire score: Paranoia ([8]; CEQ ranges from 0.000 to 1.000): 0
Challenging Experience Questionnaire score: Physical Distress ([8]; CEQ ranges from 0.000 to 1.000): 0.24
Challenging Experience Questionnaire score: Total Score ([8]; CEQ ranges from 0.000 to 1.000): 0.06
MEQ30 score: Ineffability ([8]; MEQ30 ranges from 0% to 100%): 80%
MEQ30 score: Mystical ([8]; MEQ30 ranges from 0% to 100%): 45.33%
MEQ30 score: Positive mood ([8]; MEQ30 ranges from 0% to 100%): 93.33%
MEQ30 score: Total Score ([8]; MEQ30 ranges from 0% to 100%): 58.67%
MEQ30 score: Transcendence of time and space ([8]; MEQ30 ranges from 0% to 100%): 46.67%
